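The compound was tested at five concentrations on cells cultured in 96-well plates, with a 48-hour exposure period. GI50 is the concentration that inhibits growth by half.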 The source made the active and inactive calls. No stated cut-off is given here; in the data, active = GI50 up to about 1.1 µM and inactive = higher.
Columns and labels:
Assay in all cases: growth of human tumour cells (NCI), 48 h
HCT-15 = system: HCT-15
NCI-H226 = system: NCI-H226
KM12 = system: KM12
UO-31 = system: UO-31
PC-3 = system: PC-3
CCRF-CEM = system: CCRF-CEM
HOP-92 = system: HOP-92
CAKI-1 = system: CAKI-1
SR = system: SR
SW-620 = system: SW-620
MDA-MB-435 = system: MDA-MB-435
Hs-578T = system: Hs-578T
SF-539 = system: SF-539
RXF 393 = system: RXF 393
SK-MEL-2 = system: SK-MEL-2
SK-OV-3 = system: SK-OV-3
SN12C = system: SN12C
COLO 205 = system: COLO 205
MOLT-4 = system: MOLT-4
M14 = system: M14
UACC-62 = system: UACC-62
OVCAR-4 = system: OVCAR-4
TK-10 = system: TK-10
ACHN = system: ACHN
SK-MEL-28 = system: SK-MEL-28
LOX IMVI = system: LOX IMVI
MDA-MB-231 = system: MDA-MB-231
NCI/ADR-RES = system: NCI/ADR-RES
MDA-N = system: MDA-N
T47D = system: T47D
HCT-116 = system: HCT-116
DU-145 = system: DU-145
BT-549 = system: BT-549
OVCAR-5 = system: OVCAR-5
HT-29 = system: HT-29
K562 = system: K562
NCI-H23 = system: NCI-H23
SK-MEL-5 = system: SK-MEL-5
Malme-3M = system: Malme-3M
OVCAR-8 = system: OVCAR-8
U-251 = system: U-251
IGROV-1 = system: IGROV-1
HL-60 = system: HL-60
EKVX = system: EKVX
SF-295 = system: SF-295
A498 = system: A498
RPMI-8226 = system: RPMI-8226
UACC-257 = system: UACC-257
HOP-62 = system: HOP-62
NCI-H522 = system: NCI-H522
A549 = system: A549
SF-268 = system: SF-268
786-0 = system: 786-0
SNB-19 = system: SNB-19
NCI-H460 = system: NCI-H460
OVCAR-3 = system: OVCAR-3

In the case of `C[C@H](NC1=CC(=O)C(N[C@@H](C)[C@H](O)c2ccccc2)=CC1=O)[C@H](O)c1ccccc1`, the GI50 (HCT-15) is reported as 68.9 µM, the GI50 (NCI-H226) is reported as 62.1 µM (inactive) and the GI50 (KM12) is reported as 59.3 µM (inactive). The GI50 (UO-31) was 64 µM (inactive), the GI50 (PC-3) was 43.1 µM (inactive) and the GI50 (CCRF-CEM) was 57.8 µM (inactive). For the same compound, the GI50 (HOP-92) was > 100 µM (inactive), the GI50 (CAKI-1) was > 100 µM (inactive) and the GI50 (SR) was 14.6 µM (inactive). The GI50 (SW-620) was > 100 µM (inactive), the GI50 (MDA-MB-435) was 81.5 µM (inactive) and the GI50 (Hs-578T) was 37.2 µM (inactive). For the same compound, the GI50 (SF-539) was 63.8 µM (inactive), the GI50 (RXF 393) was > 100 µM (inactive) and the GI50 (SK-MEL-2) was > 100 µM (inactive). The GI50 (SK-OV-3) was 69 µM (inactive), the GI50 (SN12C) was > 100 µM (inactive) and the GI50 (COLO 205) was 68.5 µM (inactive). For the same compound, the GI50 (MOLT-4) was 37.2 µM (inactive), the GI50 (M14) was > 100 µM (inactive) and the GI50 (UACC-62) was 87.9 µM (inactive). The GI50 (OVCAR-4) was > 100 µM (inactive), the GI50 (TK-10) was 55.7 µM (inactive) and the GI50 (ACHN) was 96.6 µM (inactive). For the same compound, the GI50 (SK-MEL-28) was > 100 µM (inactive), the GI50 (LOX IMVI) was > 100 µM (inactive) and the GI50 (MDA-MB-231) was 76.2 µM (inactive). The GI50 (NCI/ADR-RES) was 92.7 µM (inactive), the GI50 (MDA-N) was > 100 µM (inactive) and the GI50 (T47D) was 53.1 µM (inactive). For the same compound, the GI50 (HCT-116) was 68.4 µM (inactive), the GI50 (DU-145) was > 100 µM (inactive) and the GI50 (BT-549) was 52.8 µM (inactive). For the same compound, the GI50 (OVCAR-5) was > 100 µM (inactive), the GI50 (HT-29) was 27.3 µM (inactive) and the GI50 (K562) was > 100 µM (inactive). The GI50 (NCI-H23) was 67 µM (inactive), the GI50 (SK-MEL-5) was 49.5 µM (inactive) and the GI50 (Malme-3M) was 67.6 µM (inactive). For the same compound, the GI50 (OVCAR-8) was > 100 µM (inactive), the GI50 (U-251) was > 100 µM (inactive) and the GI50 (IGROV-1) was > 100 µM (inactive). The GI50 (HL-60) was > 100 µM (inactive), the GI50 (EKVX) was > 100 µM (inactive) and the GI50 (SF-295) was 70.1 µM (inactive). The GI50 (A498) was > 100 µM (inactive), the GI50 (RPMI-8226) was > 100 µM (inactive) and the GI50 (UACC-257) was > 100 µM (inactive). For the same compound, the GI50 (HOP-62) was > 100 µM (inactive), the GI50 (NCI-H522) was 61.8 µM (inactive) and the GI50 (A549) was 95.3 µM (inactive). For the same compound, the GI50 (SF-268) was > 100 µM (inactive), the GI50 (786-0) was > 100 µM (inactive) and the GI50 (SNB-19) was > 100 µM (inactive). The GI50 (NCI-H460) was 63.8 µM (inactive) and the GI50 (OVCAR-3) was > 100 µM (inactive).

From ChEMBL document CHEMBL1201862, “PubChem BioAssay data set” (2004)
